Assay results reported in ChEMBL document CHEMBL1909046, “DrugMatrix in vitro pharmacology data”.

Experiments:
[1] = target: Beta-1 adrenergic receptor (Homo sapiens, UniProt P08588); experiment: DRUGMATRIX: Adrenergic beta1 radioligand binding (ligand: [125I] Cyanopindolol); format: cell membranes, CHO-K1, Membrane; conditions: cho-k1; Not Active = under 50% inhibition at 10 µM
[2] = target: Beta-3 adrenergic receptor (Homo sapiens, UniProt P13945); experiment: DRUGMATRIX: Adrenergic beta3 radioligand binding (ligand: [125I] Cyanopindolol); format: cell membranes, HEK293, Membrane; conditions: hek293; Not Active = under 50% inhibition at 10 µM
[3] = target: T1, Type-2 angiotensin II receptor (Homo sapiens, UniProt P50052); format: cell-based; conditions: cho-k1; further: in other assays of this panel Not Active means under 50% inhibition at 10 µM
T1 sequence (P50052 whole entry): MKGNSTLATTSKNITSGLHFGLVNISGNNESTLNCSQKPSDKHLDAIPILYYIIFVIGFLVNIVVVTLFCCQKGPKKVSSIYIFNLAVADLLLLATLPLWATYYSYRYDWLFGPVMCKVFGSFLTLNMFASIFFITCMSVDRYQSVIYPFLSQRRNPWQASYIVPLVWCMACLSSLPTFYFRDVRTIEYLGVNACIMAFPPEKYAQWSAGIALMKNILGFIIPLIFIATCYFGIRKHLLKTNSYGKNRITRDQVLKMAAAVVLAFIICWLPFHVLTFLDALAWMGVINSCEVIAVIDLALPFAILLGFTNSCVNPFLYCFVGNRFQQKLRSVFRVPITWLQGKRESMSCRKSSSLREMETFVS

[4] = target: T2, Vasoactive intestinal polypeptide receptor 1 (Homo sapiens, UniProt P32241); format: cell membranes, Membrane; conditions: ht-29; further: in other assays of this panel Not Active means under 50% inhibition at 10 µM
T2 sequence (P32241 whole entry): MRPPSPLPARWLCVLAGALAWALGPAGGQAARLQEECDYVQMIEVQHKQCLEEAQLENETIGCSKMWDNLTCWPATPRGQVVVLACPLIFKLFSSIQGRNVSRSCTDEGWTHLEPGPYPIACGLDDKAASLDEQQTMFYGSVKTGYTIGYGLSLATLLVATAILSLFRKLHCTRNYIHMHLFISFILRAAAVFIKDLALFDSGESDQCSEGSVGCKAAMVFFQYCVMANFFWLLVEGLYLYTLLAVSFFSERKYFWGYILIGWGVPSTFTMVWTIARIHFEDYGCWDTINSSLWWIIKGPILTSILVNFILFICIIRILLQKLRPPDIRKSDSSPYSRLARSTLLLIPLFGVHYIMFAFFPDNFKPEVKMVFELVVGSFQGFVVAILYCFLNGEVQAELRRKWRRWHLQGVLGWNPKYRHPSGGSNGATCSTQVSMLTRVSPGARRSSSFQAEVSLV

D(4) dopamine receptor = target: T3, D(4) dopamine receptor (Homo sapiens, UniProt P21917); experiment: DRUGMATRIX: Dopamine D4.2 radioligand binding (ligand: [3H] Spiperone); format: cell membranes, CHO-K1, Membrane; conditions: cho-k1; Not Active = under 50% inhibition at 10 µM
T3 sequence (P21917 whole entry): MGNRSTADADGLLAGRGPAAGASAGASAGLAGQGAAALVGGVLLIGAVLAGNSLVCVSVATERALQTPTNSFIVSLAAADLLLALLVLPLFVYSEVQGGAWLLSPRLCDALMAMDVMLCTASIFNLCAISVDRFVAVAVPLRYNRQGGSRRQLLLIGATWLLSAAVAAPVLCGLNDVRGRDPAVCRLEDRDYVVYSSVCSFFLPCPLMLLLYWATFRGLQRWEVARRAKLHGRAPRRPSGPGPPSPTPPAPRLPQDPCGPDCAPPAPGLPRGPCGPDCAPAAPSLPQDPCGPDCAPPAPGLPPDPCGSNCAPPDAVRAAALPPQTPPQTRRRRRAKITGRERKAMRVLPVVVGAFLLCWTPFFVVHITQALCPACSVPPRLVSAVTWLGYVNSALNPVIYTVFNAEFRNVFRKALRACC

[5] = DRUGMATRIX: Glutamate, NMDA, Agonism radioligand binding (ligand: [3H] CGP-39653); format: cell membranes, Rattus norvegicus, Wistar, Cerebral cortex, Membrane; conditions: Not Active = under 50% inhibition at 10 µM
[6] = target: Protein phosphatase 3 catalytic subunit alpha (Homo sapiens, UniProt Q08209); parameters: species or system Escherichia coli;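 further: inhibition of calcineurin (PP2B) enzyme activity, measured with DiFMUP as the substrate; in other assays of this panel Not Active means under 50% inhibition at 10 µM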
Adenosine receptor A2a = Adenosine receptor A2a (Homo sapiens, UniProt P29274); experiment: DRUGMATRIX: Adenosine A2A radioligand binding (ligand: […]); format: cell membranes, HEK293, Membrane; conditions: hek293; Not Active = under 50% inhibition at 10 µM
Sequence of Adenosine receptor A2a (P29274 whole entry): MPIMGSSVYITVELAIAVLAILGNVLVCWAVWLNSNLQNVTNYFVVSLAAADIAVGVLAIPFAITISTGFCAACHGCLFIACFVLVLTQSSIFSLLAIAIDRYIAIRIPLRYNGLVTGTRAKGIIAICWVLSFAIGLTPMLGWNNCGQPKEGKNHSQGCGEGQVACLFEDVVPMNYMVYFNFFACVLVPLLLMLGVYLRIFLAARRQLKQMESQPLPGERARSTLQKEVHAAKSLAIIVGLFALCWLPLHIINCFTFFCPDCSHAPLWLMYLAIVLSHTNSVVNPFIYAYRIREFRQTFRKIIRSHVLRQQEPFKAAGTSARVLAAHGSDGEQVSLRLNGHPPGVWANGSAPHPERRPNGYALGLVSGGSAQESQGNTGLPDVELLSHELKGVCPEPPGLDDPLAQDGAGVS

Sequence of Beta-1 adrenergic receptor (P08588 whole entry): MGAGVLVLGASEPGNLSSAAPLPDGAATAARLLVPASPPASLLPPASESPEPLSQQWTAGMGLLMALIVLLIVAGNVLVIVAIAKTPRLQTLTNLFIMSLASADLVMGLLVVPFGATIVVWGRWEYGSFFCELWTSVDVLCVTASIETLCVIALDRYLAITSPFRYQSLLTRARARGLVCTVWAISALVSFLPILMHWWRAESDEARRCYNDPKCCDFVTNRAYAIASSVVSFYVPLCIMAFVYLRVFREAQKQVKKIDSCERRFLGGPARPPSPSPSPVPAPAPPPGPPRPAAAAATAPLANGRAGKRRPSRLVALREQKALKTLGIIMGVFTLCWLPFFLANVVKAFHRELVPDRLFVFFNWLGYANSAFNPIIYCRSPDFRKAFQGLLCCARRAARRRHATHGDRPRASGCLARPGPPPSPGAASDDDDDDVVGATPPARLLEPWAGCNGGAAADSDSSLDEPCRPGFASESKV
Sequence of Beta-3 adrenergic receptor (P13945 whole entry): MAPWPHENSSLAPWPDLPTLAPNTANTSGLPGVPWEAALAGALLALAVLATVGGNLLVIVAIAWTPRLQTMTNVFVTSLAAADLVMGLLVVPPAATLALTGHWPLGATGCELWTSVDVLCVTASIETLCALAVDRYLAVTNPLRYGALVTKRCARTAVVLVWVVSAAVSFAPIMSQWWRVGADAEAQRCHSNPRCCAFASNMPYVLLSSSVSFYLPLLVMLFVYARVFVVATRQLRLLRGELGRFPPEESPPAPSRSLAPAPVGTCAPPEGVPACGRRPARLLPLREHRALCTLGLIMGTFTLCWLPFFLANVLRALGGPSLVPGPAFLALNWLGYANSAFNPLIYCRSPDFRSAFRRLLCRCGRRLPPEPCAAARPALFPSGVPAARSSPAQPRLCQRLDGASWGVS

Cc1c(C)c2c(c(C)c1O)CCC(C)(CN1CCN(c3cc(N4CCCC4)nc(N4CCCC4)n3)CC1)O2 (configuration not stated)
Not Active: IC50 [1] | IC50 [2] | IC50 [3] | IC50 [4] | IC50 (D(4) dopamine receptor) | IC50 [5] | Ki [5] | IC50 [6] | IC50 (Adenosine receptor A2a)

O=C(O)c1cn(-c2ccc(F)cc2)c2cc(N3CCNCC3)c(F)cc2c1=O [SARAFLOXACIN]
Not Active: IC50 [1] | IC50 [2] | IC50 [3] | IC50 [4] | IC50 (D(4) dopamine receptor) | IC50 [5] | Ki [5] | IC50 [6] | IC50 (Adenosine receptor A2a)

Nc1cc(N2CCCCC2)nc(N)[n+]1[O-] [MINOXIDIL]
Not Active: IC50 [1] | IC50 [2] | IC50 [3] | IC50 [4] | IC50 (D(4) dopamine receptor) | IC50 [5] | Ki [5] | IC50 [6] | IC50 (Adenosine receptor A2a)

CS(=O)(=O)c1ccc([C@@H](O)[C@@H](CO)NC(=O)C(Cl)Cl)cc1 [THIAMPHENICOL]
Not Active: IC50 [1] | IC50 [2] | IC50 [3] | IC50 [4] | IC50 (D(4) dopamine receptor) | IC50 [5] | Ki [5] | IC50 [6] | IC50 (Adenosine receptor A2a)

CCN1CCC[C@H]1CNC(=O)c1cc(S(N)(=O)=O)ccc1OC [LEVOSULPIRIDE]
Not Active: IC50 [1] | IC50 [2] | IC50 [3] | IC50 [4] | IC50 (D(4) dopamine receptor) | IC50 [5] | Ki [5] | IC50 [6] | IC50 (Adenosine receptor A2a)

CCN(CC)CC(=O)Nc1c(C)cccc1C [LIDOCAINE]
Not Active: IC50 [1] | IC50 [2] | IC50 [3] | IC50 [4] | IC50 (D(4) dopamine receptor) | IC50 [5] | Ki [5] | IC50 [6] | IC50 (Adenosine receptor A2a)

CC(c1cc2ccccc2s1)N(O)C(N)=O (configuration not stated) [ZILEUTON]
Not Active: IC50 [1] | IC50 [2] | IC50 [3] | IC50 [4] | IC50 (D(4) dopamine receptor) | IC50 [5] | Ki [5] | IC50 [6] | IC50 (Adenosine receptor A2a)

CCCCNc1ccc(C(=O)OCCN(C)C)cc1 [TETRACAINE]
Not Active: IC50 [1] | IC50 [2] | IC50 [3] | IC50 [4] | IC50 (D(4) dopamine receptor) | IC50 [5] | Ki [5] | IC50 [6] | IC50 (Adenosine receptor A2a)

CC[C@@H](C(=O)[C@@H](C)[C@@H](O)[C@H](C)[C@@H]1O[C@@H]([C@@H](CC)C(=O)O)CC[C@@H]1C)[C@H]1O[C@]2(C=C[C@@H](O)[C@]3(CC[C@@](C)([C@H]4CC[C@](O)(CC)[C@H](C)O4)O3)O2)[C@H](C)C[C@@H]1C [SALINOMYCIN]
Not Active: IC50 [1] | IC50 [2] | IC50 [3] | IC50 [4] | IC50 (D(4) dopamine receptor) | IC50 [5] | Ki [5] | IC50 [6] | IC50 (Adenosine receptor A2a)

CO[C@@H]1[C@@H](OC)[C@H](C)[C@@](O)(CC(=O)O)O[C@H]1[C@H](C)[C@H]1O[C@@]2(CC[C@@](C)([C@H]3CC[C@@](C)([C@@H]4O[C@@H]([C@H]5O[C@](C)(O)[C@H](C)C[C@@H]5C)C[C@@H]4O[C@@H]4C[C@H](OC)[C@@H](OC)[C@H](C)O4)O3)O2)C[C@H](O)[C@H]1C [MADURAMICIN ACID]
Not Active: IC50 [1] | IC50 [2] | IC50 [3] | IC50 [4] | IC50 (D(4) dopamine receptor) | IC50 [5] | Ki [5] | IC50 [6] | IC50 (Adenosine receptor A2a)

CC(C)Cc1ccc([C@@H](C)C(=O)O)cc1 [(R)-IBUPROPHEN]
Not Active: IC50 [1] | IC50 [2] | IC50 [3] | IC50 [4] | IC50 (D(4) dopamine receptor) | IC50 [5] | Ki [5] | IC50 [6] | IC50 (Adenosine receptor A2a)

NC(=O)N1C(=O)/C(=C(\O)c2cccs2)c2cc(Cl)ccc21 [TENIDAP]
Not Active: IC50 [1] | IC50 [2] | IC50 [3] | IC50 [4] | IC50 (D(4) dopamine receptor) | IC50 [5] | Ki [5] | IC50 [6] | IC50 (Adenosine receptor A2a)

O=C1C(CC[S+]([O-])c2ccccc2)C(=O)N(c2ccccc2)N1c1ccccc1 (configuration not stated) [SULFINPYRAZONE]
Not Active: IC50 [1] | IC50 [2] | IC50 [3] | IC50 [4] | IC50 (D(4) dopamine receptor) | IC50 [5] | Ki [5] | IC50 [6] | IC50 (Adenosine receptor A2a)

CO[C@H]1/C=C/O[C@@]2(C)Oc3c(C)c(O)c4c(O)c(c(/C=N/N5CCN(C6CCCC6)CC5)c(O)c4c3C2=O)NC(=O)/C(C)=C\C=C\[C@H](C)[C@H](O)[C@@H](C)[C@@H](O)[C@@H](C)[C@H](OC(C)=O)[C@@H]1C [RIFAPENTINE]
Not Active: IC50 [1] | IC50 [2] | IC50 [3] | IC50 [4] | IC50 (D(4) dopamine receptor) | IC50 [5] | Ki [5] | IC50 [6] | IC50 (Adenosine receptor A2a)

CCCCOc1cc(CC2CNC(=O)N2)ccc1OC (configuration not stated) [RO-201724]
Not Active: IC50 [1] | IC50 [2] | IC50 [3] | IC50 [4] | IC50 (D(4) dopamine receptor) | IC50 [5] | Ki [5] | IC50 [6] | IC50 (Adenosine receptor A2a)

N#Cc1ccc(C(c2ccc(C#N)cc2)n2cncn2)cc1 [LETROZOLE]
Not Active: IC50 [1] | IC50 [2] | IC50 [3] | IC50 [4] | IC50 (D(4) dopamine receptor) | IC50 [5] | Ki [5] | IC50 [6] | IC50 (Adenosine receptor A2a)

CN(C/C=C/C#CC(C)(C)C)Cc1cccc2ccccc12 [TERBINAFINE]
Not Active: IC50 [1] | IC50 [2] | IC50 [3] | IC50 [4] | IC50 (D(4) dopamine receptor) | IC50 [5] | Ki [5] | IC50 [6] | IC50 (Adenosine receptor A2a)

O=C1Nc2ccc(Cl)cc2C(c2ccccc2Cl)=NC1O (configuration not stated) [LORAZEPAM]
Not Active: IC50 [1] | IC50 [2] | IC50 [3] | IC50 [4] | IC50 (D(4) dopamine receptor) | IC50 [5] | Ki [5] | IC50 [6] | IC50 (Adenosine receptor A2a)
